Source: US11851406B2, “Positive allosteric modulators of the muscarinic acetylcholine receptor M1” (Vanderbilt University, priority 2018, dated 2023)

How the values were obtained:
human mAChR M1 [1] = molecular target: T1, human mAChR M1 (Homo sapiens, UniProt P11229); experiment: mAChR M1 cell-based functional assay (calcium mobilization), PAM activity: increase in the EC20 acetylcholine response; conditions: CHO-K1 cells expressing hM1; calcium flux (Fluo-4); potentiation of EC20 acetylcholine response
T1 sequence (P11229 1-460): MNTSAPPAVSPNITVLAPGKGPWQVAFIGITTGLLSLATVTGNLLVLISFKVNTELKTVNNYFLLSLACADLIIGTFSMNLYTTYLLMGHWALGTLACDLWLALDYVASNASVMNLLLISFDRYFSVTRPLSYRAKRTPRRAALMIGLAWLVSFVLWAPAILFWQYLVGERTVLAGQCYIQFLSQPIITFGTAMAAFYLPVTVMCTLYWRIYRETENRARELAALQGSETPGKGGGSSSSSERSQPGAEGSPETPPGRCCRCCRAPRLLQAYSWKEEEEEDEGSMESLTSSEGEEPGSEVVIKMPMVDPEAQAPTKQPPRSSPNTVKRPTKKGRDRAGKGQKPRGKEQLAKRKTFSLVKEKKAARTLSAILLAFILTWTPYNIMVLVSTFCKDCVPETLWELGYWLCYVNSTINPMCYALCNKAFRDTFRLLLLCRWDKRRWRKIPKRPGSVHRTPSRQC
Outline: (§1)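 Calcium mobilization in CHO-K1 cells stably expressing hM1, Fluo-4 loaded; 11-point 1:3 compound series added at 4 s, acetylcholine EC20 at 144 s, kinetic fluorescence ratio at 1 Hz. Agonism: rise on compound alone, Emax relative to acetylcholine maximum; PAM: potentiation of EC20 response; four-parameter logistic fits.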

human mAChR M1 [2] = molecular target: T1, human mAChR M1; experiment: mAChR M1 cell-based functional assay (calcium mobilization), agonist activity upon compound addition alone; conditions: CHO-K1 cells expressing hM1; for EC50: calcium mobilization upon compound addition, no acetylcholine; for Emax: compound alone, relative to the maximum for acetylcholine
Outline: as §1

SMILES	Emax (human mAChR M1 [1])	EC50 (human mAChR M1 [2])	Emax (human mAChR M1 [2])	EC50 (human mAChR M1 [1])
Cn1ccc(-c2ccc(Cc3cc(C(=O)NC4CCOCC4)nc(-c4ccn(C)n4)c3)cc2)n1 [Compound 35, 6-(1-methyl-1H-pyrazol-3-yl)-4-(4-(1-methyl-1H-pyrazol-3-yl)benzyl)-N-(tetrahydro-2H-pyran-4-yl)picolinamide]	46%	> 10 µM	< 5%	
Cc1c(Cc2ccc(-c3ccn(C)n3)cc2)cc(C(=O)NC[C@H]2CCCO2)nc1-c1ccn(C)n1 [Compound 16, (R)-5-methyl-6-(1-methyl-1H-pyrazol-3-yl)-4-(4-(1-methyl-1H-pyrazol-3-yl)benzyl)-N-((tetrahydrofuran-2-yl)methyl)picolinamide]	62%	> 10 µM	< 5%	
Cn1cc(-c2ccc(Cc3cc(C(=O)NC4CCOCC4)nc(-c4ccn(C)n4)c3)cn2)cn1 [Compound 4, 6-(1-methyl-1H-pyrazol-3-yl)-4-((6-(1-methyl-1H-pyrazol-4-yl)pyridin-3-yl)methyl)-N-(tetrahydro-2H-pyran-4-yl)picolinamide]	53%	> 10 µM	< 5%	
Cn1ccc(-c2ccc(Cc3cc(C(=O)NC4CC5(COC5)C4)nc(-n4cccn4)c3)cc2)n1 [Compound 31, 4-(4-(1-methyl-1H-pyrazol-3-yl)benzyl)-6-(1H-pyrazol-1-yl)-N-(2-oxaspiro[3.3]heptan-6-yl)picolinamide]	56%	> 10 µM	< 5%	
Cn1cc(-c2ccc(Cc3cc(C(=O)N[C@H]4CCOC[C@@H]4O)nc(-n4cccn4)c3)cn2)cn1 [Compound 18, N-((3R,4S)-3-hydroxytetrahydro-2H-pyran-4-yl)-4-((6-(1-methyl-1H-pyrazol-4-yl)pyridin-3-yl)methyl)-6-(1H-pyrazol-1-yl)picolinamide]	85%	≥ 10 µM	13%	1.02 µM
Cc1nc(-c2ccc(Cc3cc(C(=O)N[C@H]4CC[C@@H]4O)nc(-n4cccn4)c3)cc2)co1 [Compound 25, N-((1S,2S)-2-hydroxycyclobutyl)-4-(4-(2-methyloxazol-4-yl)benzyl)-6-(1H-pyrazol-1-yl)picolinamide]	40%	> 10 µM	< 5%	
Cc1c(Cc2ccc(-c3ccn(C)n3)cc2)cc(C(=O)N[C@H]2CCC[C@@H]2O)nc1-c1ccn(C)n1 [Compound 12, N-((1S,2S)-2-hydroxycyclopentyl)-5-methyl-6-(1-methyl-1H-pyrazol-3-yl)-4-(4-(1-methyl-1H-pyrazol-3-yl)benzyl)picolinamide]	86%	> 10 µM	6%	1.97 µM
Cn1ccc(-c2ccc(Cc3cc(C(=O)NC4CC5(COC5)C4)nc(-c4ccn(C)n4)c3)cc2)n1 [Compound 36, 6-(1-methyl-1H-pyrazol-3-yl)-4-(4-(1-methyl-1H-pyrazol-3-yl)benzyl)-N-(2-oxaspiro[3.3]heptan-6-yl)picolinamide]	38%	> 10 µM	< 5%	3.71 µM
Cc1c(Cc2ccc(-c3ccn(C)n3)cc2)cc(C(=O)N[C@H]2CCC[C@@H]2O)nc1-n1cccn1 [Compound 43, N-((1S,2S)-2-hydroxycyclopentyl)-5-methyl-4-(4-(1-methyl-1H-pyrazol-3-yl)benzyl)-6-(1H-pyrazol-1-yl)picolinamide]	85%	≥ 10 µM	14%	1.3 µM

The remaining lines, values ahead:

Emax (human mAChR M1 [1])	EC50 (human mAChR M1 [2])	Emax (human mAChR M1 [2])	EC50 (human mAChR M1 [1])	SMILES
83%	> 10 µM	< 5%	6 µM	Cc1c(Cc2ccc(-n3cccn3)cc2)cc(C(=O)NC2CC3(COC3)C2)nc1-c1ccn(C)n1 [Compound 58, 4-(4-(1H-pyrazol-1-yl)benzyl)-5-methyl-6-(1-methyl-1H-pyrazol-3-yl)-N-(2-oxaspiro[3.3]heptan-6-yl)picolinamide]
83%	≥ 10 µM	23%	1.09 µM	Cc1c(Cc2ccc(-c3ccn(C)n3)nc2)cc(C(=O)N[C@H]2CCOC[C@@H]2O)nc1-n1cccn1 [Compound 44, N-((3R,4S)-3-hydroxytetrahydro-2H-pyran-4-yl)-5-methyl-4-((6-(1-methyl-1H-pyrazol-3-yl)pyridin-3-yl)methyl)-6-(1H-pyrazol-1-yl)picolinamide]
52%	> 10 µM	< 5%	3.87 µM	Cc1nc(-c2ccc(Cc3cc(C(=O)N[C@H]4CCC[C@@H]4O)nc(-n4cccn4)c3C)cc2)co1 [Compound 54, N-((1S,2S)-2-hydroxycyclopentyl)-5-methyl-4-(4-(2-methyloxazol-4-yl)benzyl)-6-(1H-pyrazol-1-yl)picolinamide]
71%	> 10 µM	< 5%		Cc1ccc(Cc2cc(C(=O)N[C@H]3CCOC[C@@H]3O)nc(-c3ccn(C)n3)c2C)cn1 [Compound 65, N-((3R,4S)-3-hydroxytetrahydro-2H-pyran-4-yl)-5-methyl-6-(1-methyl-1H-pyrazol-3-yl)-4-((6-methylpyridin-3-yl)methyl)picolinamide]
65%	> 10 µM	< 5%		Cc1c(Cc2ccc(-c3cnn(C)c3)nc2)cc(C(=O)NC2CCOCC2)nc1-n1cccn1 [Compound 50, 5-methyl-4-((6-(1-methyl-1H-pyrazol-4-yl)pyridin-3-yl)methyl)-6-(1H-pyrazol-1-yl)-N-(tetrahydro-2H-pyran-4-yl)picolinamide]
75%	> 10 µM	5%	3.96 µM	Cc1c(Cc2ccc(-c3cnn(C)c3)nc2)cc(C(=O)N[C@H]2CCC[C@@H]2O)nc1-n1cccn1 [Compound 53, N-((1S,2S)-2-hydroxycyclopentyl)-5-methyl-4-((6-(1-methyl-1H-pyrazol-4-yl)pyridin-3-yl)methyl)-6-(1H-pyrazol-1-yl)picolinamide]
85%	≥ 10 µM	28%	0.881 µM	Cc1c(Cc2ccc(-c3ccn(C)n3)nc2)cc(C(=O)N[C@H]2CCCC[C@@H]2O)nc1-n1cccn1 [Compound 46, N-((1S,2S)-2-hydroxycyclohexyl)-5-methyl-4-((6-(1-methyl-1H-pyrazol-3-yl)pyridin-3-yl)methyl)-6-(1H-pyrazol-1-yl)picolinamide]
